What was measured:
[1] = test system: Myc protein in MCF-7 breast cancer cells; test: Western blot of Myc protein level; type: cell-based; conditions: MCF-7, 0.5, 1.0, 2.0 μM, 24 h
Method: Western blot. G-quadruplex formed in the MYC promoter functions as a transcriptional silencer. To determine the effects of 7-aza-8,9-methylenedioxyindenosioquinolines on the MYC protein level, a western blotting experiment was carried out using MCF-7 breast cancer cells. Western blot experiments were conducted to examine the downregulation effects of 7-aza-8,9-methylenedioxyindenosioquinolines on Myc protein level (FIG. 5). MCF-7 breast cancer cells were incubated for 24 h at 0, 0.5, 1.0, and 2.0 μM of G-101-108.
Western Blotting. MCF-7 cells were grown and treated in 6-well tissue culture plates. After collection, cells were suspended in 140 μL lysis buffer containing 1× RIPA buffer, 1× Protease Inhibitor Cocktail (A32965, Thermo Scientific), 1× NuPAGE LDS Sample Buffer (NP0007, Invitrogen), and 1× Sample Reducing Agent (NP0009, Invitrogen). The cell lysates were heated to 75° C. for 10 min. After sonication, 8 μL of each sample was loaded on a 4-15% Mini-PROTEAN TGX gel (4561086, Bio-Rad). […] Myc and GAPDH were detected with 1:1000-diluted monoclonal anti-Myc antibody (5605S, Cell Signaling Technology) and 1:2000-diluted monoclonal anti-GAPDH antibody (5174S, Cell Signaling Technology), respectively. Primary antibodies were detected by anti-Rabbit IgG HRP-linked antibody (7074S, Cell Signaling Technology). […]

RAJI lymphoma cells = test: MTS cell viability IC50 assay; type: cell-based; conditions: 72 h
Method: Cytotoxicity Results in Raji Non-Hodgkin's Lymphoma Cells. MTS experiments were then conducted to test the anti-proliferative effects of 7-aza-8,9-methylenedioxyindenoisoquinolines in Raji cells. Cells were incubated at 2-2000 nM of each drug for 72 h, and cell viabilities were quantified using the MTS assay. […] This potency trend generally correlated with the western blot results, in which G106 and G108 […] show weaker Myc downregulation.
(§1) MTS Cell Viability IC50 Assay. Drug solutions for MTS IC50 assays of suspension cell lines were made from DMSO stocks by serial-dilutions in 1×PBS (10010-031, Gibco). To set up treatments, drug solutions were plated in triplicates to 96-well tissue culture plates, to which cell-containing media was added to a total volume of 100 μL/well. 100%-viability controls were untreated cells. 2000 cells/well were plated for all suspension cell lines except 3000 cells/well for KMS-27 and 10000 cells/well for CHLA-32. Blanks were cell-free media. Drug treatments were maintained for 72 hr at 37° C. with 5% CO2. To quantify cells, CellTiter 96 AQueous MTS Reagent Powder (G1111, Promega) was dissolved and mixed with phenazine methosulfate (PMS, Sigma-Aldrich P9625) according to manufacturer's instructions. MTS/PMS mix ([…]) was added to treatment wells, 100%-viability control wells, and blank wells. Colors were developed at 37° C. with 5% CO2 for 4 h and absorbance at 490 nm was measured by BioTek Synergy 4 system. To obtain %-viability, A490 values were corrected by blank subtraction, normalized to 100%-viability control, and averaged. Average %-viabilities were plotted against drug dosages to obtain dose-response curves. […] For adherent cell lines, the MTS IC50 assays were conducted the same way as for suspension cell lines except for cell plating and drug treatment. For cell plating, 50 μL of 2000 cells were plated in triplicates to a 96-well tissue culture plate. Cells were allowed sufficient time to become adherent. Serial-diluted drug solutions were made the same way as in the MTS IC50 assays. To set up treatments, drug solutions were mixed with media to two-fold of the final concentrations, and 50 μL of such drug-media mix was then added to 50 μL of plated cells.

human Topo1 = human Topo1 (Homo sapiens (Human), UniProt P11387); test: Topo1-mediated DNA cleavage assay; type: biochemical; conditions: 10 μM
Sequence of human Topo1 (P11387 whole entry): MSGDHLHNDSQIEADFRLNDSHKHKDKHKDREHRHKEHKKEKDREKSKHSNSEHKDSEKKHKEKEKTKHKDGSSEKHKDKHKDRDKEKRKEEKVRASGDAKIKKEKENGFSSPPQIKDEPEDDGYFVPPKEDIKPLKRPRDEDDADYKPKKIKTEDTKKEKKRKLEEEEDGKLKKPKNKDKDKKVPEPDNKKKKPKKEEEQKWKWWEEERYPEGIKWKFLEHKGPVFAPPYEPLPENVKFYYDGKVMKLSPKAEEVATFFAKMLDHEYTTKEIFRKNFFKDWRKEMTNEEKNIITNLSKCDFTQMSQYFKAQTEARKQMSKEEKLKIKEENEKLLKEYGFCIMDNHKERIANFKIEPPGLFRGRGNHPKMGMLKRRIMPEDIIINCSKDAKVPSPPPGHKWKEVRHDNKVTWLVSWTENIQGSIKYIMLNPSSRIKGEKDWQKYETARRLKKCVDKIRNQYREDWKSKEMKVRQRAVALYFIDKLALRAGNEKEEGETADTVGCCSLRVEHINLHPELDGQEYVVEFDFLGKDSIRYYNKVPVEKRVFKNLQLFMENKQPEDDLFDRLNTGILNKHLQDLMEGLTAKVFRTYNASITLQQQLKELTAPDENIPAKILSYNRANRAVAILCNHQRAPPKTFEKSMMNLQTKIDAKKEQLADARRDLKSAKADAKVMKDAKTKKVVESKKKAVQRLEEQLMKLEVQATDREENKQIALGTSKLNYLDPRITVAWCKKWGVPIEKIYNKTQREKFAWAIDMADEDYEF
Method: 7-Aza-8,9-methylenedioxyindenoisoquinoline compounds were examined for inhibitory effects on Topol-mediated DNA relaxation (FIG. 11A), and for Topol poison effect using Topol-Mediated DNA Cleavage Assay (FIG. 11B).
Topol-Mediated DNA Cleavage Assay. Human Topoisomerase I Assay Kit (TG1015-1A) from Topogen was used to examine the compounds for Topol poison effect. Assay was performed according to manufacturer's instructions. CPT at 10 μM was used as a positive control. […] Assay samples were incubated at 37° C. for 30 min followed by reaction termination with 10% SDS. This was followed by a 15 min Proteinase K digestion for 15 min at 37° C. to degrade Topo1 and a 1:1 volume chloroform:isoamyl alcohol DNA extraction. Samples were electrophoresed on a 1% agarose gel in TBE buffer for 2 h at 46 v. Both the agarose gel and buffer contained 0.5 μg/ml of ethidium bromide.

[2] = Stability in blood plasma; conditions: human plasma, 37° C.
Method: (§3) Analysis of Plasma Protein Binding and Stability in Human and Mouse Blood Plasma by Equilibrium Dialysis. Frozen plasma (stored at −80° C.) was thawed immediately in a 37° C. water bath. The working solutions of test compound and control compound were prepared in DMSO at 200 μM concentration, and the working solutions were spiked into plasma. The final concentration of compound was 1 μM. The final concentration of DMSO was 0.5%. Ketoconazole was used as positive control in the assay. The dialysis membranes were soaked in ultrapure water for 60 min to separate strips, then in 20% ethanol for 20 min, and then finally in dialysis buffer for 20 min. For equilibrium dialysis, each cell contained plasma sample (150 μL) and was dialyzed against an equal volume of dialysis buffer (PBS). The assay was performed in duplicate. The dialysis plate was sealed and incubated at 37° C. with 5% CO2 at 100 rpm for 6 h. At the end of incubation, samples (50 μL) from both buffer and plasma chambers were transferred to wells of a 96-well plate. Plasma (50 μL) was added to each buffer sample and an equal volume of PBS was added to the collected plasma sample. Cold acetonitrile (400 μL) containing internal standards (IS, 100 nM alprazolam, 200 nM labetalol, 200 nM imipramine and 2 μM ketoprofen) was added to precipitate protein and release compounds. Samples were vortexed for 2 min and centrifuged for 30 min at 3,220 g. An aliquot (100 μL) of the supernatant was diluted with ultra-pure H2O (100 μL), and the mixture was used for LC-MS/MS analysis. For stability determination in plasma, a spiked plasma sample (50 μL) was transferred to a new plate and incubated at 37° C., 5% CO2 for 0 and 6 h. At designated time points, PBS (50 μL) was added and mixed thoroughly, followed by the addition of room temperature quench solution [400 μL of acetonitrile containing internal standards (IS, 100 nM alprazolam, 200 nM labetalol, 200 nM imipramine and 2 μM ketoprofen)] to precipitate protein and release compounds. Samples were vortexed for 2 min and centrifuged for 30 min at 3,220 g. An aliquot (400 μL) of the supernatant was diluted by ultra-pure H2O, and the mixture was used for LC-MS/MS analysis. The concentrations of test compounds in the buffer and plasma chambers were determined from peak area ratios.

[3] = Stability in blood plasma; conditions: mouse plasma, 37° C.
Method: Analysis of Plasma Protein Binding and Stability in Human and Mouse Blood Plasma by Equilibrium Dialysis. Frozen plasma (stored at −80° C.) was thawed immediately in a 37° C. water bath. The working solutions of test compound and control compound were prepared in DMSO at 200 μM concentration, and the working solutions were spiked into plasma. The final concentration of compound was 1 μM. The final concentration of DMSO was 0.5%. Ketoconazole was used as positive control in the assay. The dialysis membranes were soaked in ultrapure water for 60 min to separate strips, then in 20% ethanol for 20 min, and then finally in dialysis buffer for 20 min. For equilibrium dialysis, each cell contained plasma sample (150 μL) and was dialyzed against an equal volume of dialysis buffer (PBS). The assay was performed in duplicate. The dialysis plate was sealed and incubated at 37° C. with 5% CO2 at 100 rpm for 6 h. At the end of incubation, samples (50 μL) from both buffer and plasma chambers were transferred to wells of a 96-well plate. Plasma (50 μL) was added to each buffer sample and an equal volume of PBS was added to the collected plasma sample. […] The concentrations of test compounds in the buffer and plasma chambers were determined from peak area ratios.

[4] = Plasma protein binding by equilibrium dialysis; conditions: human plasma
Method: as §3

[5] = Plasma protein binding by equilibrium dialysis; conditions: mouse plasma
Method: as §3

[6] = target: 3′-TAMRA-labeled MycG4 DNA; test: Fluorescence binding assay; conditions: 20° C., 100 mM K+ buffer, pH 7.0; read-out: Apparent Binding Affinity Kd, app
Method: Binding Affinity to the Myc G-Quadruplex. Binding affinity of eight 7-aza-8,9-methylenedioxyindenoisoquinolines to MycG4 was determined using a fluorescence binding assay with a 3′-TAMRA-labeled MycG4 DNA. Monitoring TAMRA emission upon drug titration afforded binding isotherms, from which apparent binding affinities, Kd,app, were derived.
Fluorescence-Based Binding Assays. Fluorescence-based binding assays were performed on a Jasco FP-8300 spectrofluorometer equipped with a temperature controller at 20° C. in a quartz cuvette with a 10 mm path length. 3′-TAMRA-labeled MycG4 DNA (Sigma-Aldrich) was diluted to 20 nM using a 75 mM KCl/25 mM potassium phosphate buffer, pH 7.0. […] Fluorescence intensity at 580 nm, the maximum for the free DNA, was plotted against drug:DNA ratio. The apparent binding dissociation constant, Kd,app, was derived for the binding of each compound. Using OriginPro software (OriginLab Corp., United States) the change in fluorescence intensity was fitted to a one-site binding equation,
where B0 is the initial fluorescence intensity, B is maximum change in fluorescence intensity, R is DNA concentration, and L is drug:DNA ratio.

AMO-1 = test: MTS GI50, Myc-dependent panel; type: cell-based; conditions: Homo sapiens, AMO1; AMO-1, 72 h; read-out: GI50
Method: (§2) Cytotoxicity Results in Myc-dependent Cancer Cell Lines.
as §1

ARD = test: MTS GI50, Myc-dependent panel; type: cell-based; conditions: ARD, 72 h; read-out: GI50
Method: as §2, §1

CCRF-CRM = test: MTS GI50, Myc-dependent panel; type: cell-based; conditions: CCRF-CRM, 72 h; read-out: GI50
Method: as §2, §1

CHLA-32 = test: MTS GI50, Myc-dependent panel; type: cell-based; conditions: CHLA-32, 72 h; read-out: GI50
Method: as §2, §1

CHLA-99 = test: MTS GI50, Myc-dependent panel; type: cell-based; conditions: CHLA-99, 72 h; read-out: GI50
Method: as §2, §1

HL-60 = test: MTS GI50, Myc-dependent panel; type: cell-based; conditions: Homo sapiens, HL-60, 72 h; read-out: GI50
Method: as §2, §1

K-562 = test: MTS GI50, Myc-dependent panel; type: cell-based; conditions: Homo sapiens, K562; K-562, 72 h; read-out: GI50
Method: as §2, §1

KMS-27 = test: MTS GI50, Myc-dependent panel; type: cell-based; conditions: KMS-27, 72 h; read-out: GI50
Method: as §2, §1

Kasumi-1 = test: MTS GI50, Myc-dependent panel; type: cell-based; conditions: Homo sapiens; Kasumi-1, 72 h; read-out: GI50
Method: as §2, §1

L-363 = test: MTS GI50, Myc-dependent panel; type: cell-based; conditions: Homo sapiens, L-363, 72 h; read-out: GI50
Method: as §2, §1

MCF-7 = test: MTS GI50, Myc-dependent panel; type: cell-based; conditions: Homo sapiens, MCF7; MCF-7, 72 h; read-out: GI50
Method: as §2, §1

MDA-MB-231 = test: MTS GI50, Myc-dependent panel; type: cell-based; conditions: Homo sapiens, MDA-MB-231, 72 h; read-out: GI50
Method: as §2, §1

MOLT-4 = test: MTS GI50, Myc-dependent panel; type: cell-based; conditions: Homo sapiens, MOLT-4, 72 h; read-out: GI50
Method: as §2, §1

RD-ES = test: MTS GI50, Myc-dependent panel; type: cell-based; conditions: 72 h, read-out: GI50
Method: as §2, §1

RPMI-8226 = test: MTS GI50, Myc-dependent panel; type: cell-based; conditions: Homo sapiens, RPMI-8226, 72 h; read-out: GI50
Method: as §2, §1

RS4;11 = test: MTS GI50, Myc-dependent panel; type: cell-based; conditions: Homo sapiens; RS4;11, 72 h; read-out: GI50
Method: as §2, §1

SK-N-MC = test: MTS GI50, Myc-dependent panel; type: cell-based; conditions: Homo sapiens, 72 h, read-out: GI50
Method: as §2, §1

TC-106 = test: MTS GI50, Myc-dependent panel; type: cell-based; conditions: TC-106, 72 h; read-out: GI50
Method: as §2, §1

TC-32 = test: MTS GI50, Myc-dependent panel; type: cell-based; conditions: Homo sapiens, TC-32, 72 h; read-out: GI50
Method: as §2, §1

TC-71 = test: MTS GI50, Myc-dependent panel; type: cell-based; conditions: TC-71, 72 h; read-out: GI50
Method: as §2, §1

THP-1 = test: MTS GI50, Myc-dependent panel; type: cell-based; conditions: Homo sapiens, THP-1, 72 h; read-out: GI50
Method: as §2, §1

COc1cc2c3c(n(CCCN4CCCC4)c(=O)c2cc1OC)-c1nc2c(cc1C3=O)OCO2 [G108, 2,3-Dimethoxy-6-(3-(pyrrolidin-1-yl)propyl)-5H-[1,3]dioxolo[4″,5″:5′,6′]pyrido[3′,2′:4,5]cyclopenta[1,2-c]isoquinoline-5,12(6H)-dione]
Myc protein level (Western blot) [1]: weak Myc downregulation
IC50 (RAJI lymphoma cells; RAJI): 1710 nM
inhibition of DNA relegation (Top1 poison effect) (human Topo1): minimal effects on DNA relegation

CC(=O)N1CCN(c2ccc(OCC3COC(Cn4ccnc4)(c4ccc(Cl)cc4Cl)O3)cc2)CC1 (centres unmarked) [Ketoconazole]
% Stability at 6 hrs [2]: 104.96%
% Stability at 6 hrs [3]: 88.82%
% Recovery [4]: 107.45%
% Bound ([4]; 1 μM, 6 h dialysis): 98.01%
% Recovery [5]: 93.23%
% Bound ([5]; 1 μM, 6 h dialysis): 99.26%

COc1cc2c3c(n(CCCn4ccnc4)c(=O)c2cc1OC)-c1cc2c(cc1C3=O)OCO2 [LMP776, indimitecan]
Kd [6]: 69 nM
IC50 (RAJI lymphoma cells; Homo sapiens, Raji): 92 nM
GI50 (AMO-1): 191 nM
GI50 (ARD): 33 nM
GI50 (CCRF-CRM): 70 nM
GI50 (CHLA-32): 93 nM
GI50 (CHLA-99): 276 nM
GI50 (HL-60): 894 nM
GI50 (K-562): 341 nM
GI50 (KMS-27): 127 nM
GI50 (Kasumi-1): 533 nM
GI50 (L-363): 53 nM
GI50 (MCF-7): > 2000 nM
GI50 (MDA-MB-231): 329 nM
GI50 (MOLT-4): 42 nM
GI50 (RD-ES): 227 nM
GI50 (RPMI-8226): 139 nM
GI50 (RS4;11): 59 nM
GI50 (SK-N-MC): 225 nM
GI50 (TC-106): 250 nM
GI50 (TC-32): 179 nM
GI50 (TC-71): 232 nM
GI50 (THP-1): 273 nM

From patent publication US20240287089A1, “Preparation and Uses of 7-Azaindenoisoquinolines” (Purdue Research Foundation, priority 0001, published 2024)
